Reference: US20210121426A1, “BLOOD PURIFICATION BY ALKALINIZING AGENT” (TOHOKU UNIVERSITY, priority 2017, published 2021)
Marks after values point to notes of the source that are not given here.

Experiments:
hippuric acid = experiment: Human clinical trial in CKD patients: hippuric acid in plasma and early morning urine (LC-MS/MS); assay type: in vivo; design: key to Influence on concentration of HA / Influence on HA U/P ratio: Excellent effects: ◯; Poor effects: X; No significant difference: —; (◯): whether or not there is an effect of promoting excretion of indoxyl sulfate into the urine cannot be determined
Procedure: (§1) 1. […] Patients were assigned to each group so that age, sex, presence of diabetes, and eGFR were not biased. Each group was treated according to the “CKD medical care guide-summary of treatment” (hereinafter referred to as standard treatment).
(§2) An alkalinizing agent was not administered to the control group. […] A pH of early morning urine was controlled over time so that the dosage could be increased up to 6 tablets, 3 times a day (morning, noon, evening) as needed according to the discretion of the physician in cases where a pH of early morning urine was less than pH 6.5. To the group B, 3 tablets a day in which each tablet contained 500 mg of sodium bicarbonate were orally administered 3 times a day (morning, noon, evening) for 24 weeks. A pH of early morning urine was controlled over time so that the dosage could be increased up to 6 tablets, 3 times a day (morning, noon, evening) as needed according to the discretion of the physician in cases where a pH of early morning urine was less than pH 6.5.
Early morning urine and blood were collected before the start of administration, and 6 weeks, 12 weeks, and 24 weeks after the start of administration, and each specimen was stored at −80° C. Methods used in the present field for indoxyl sulfate, p-cresyl sulfate, phenylacetyl-L-glutamine, hippuric acid, and argininosuccinic acid in urine and blood (Sato, E., et. al., Metabolic alteration by indoxyl sulfate in skeletal muscle induce uremic sarcopenia in chronic kidney disease., Sci Rep. 2016 Nov. 10; 6:36618. doi: 10.1038/srep36618, and the like) were referred to, and quantitative analysis was performed using the following liquid chromatography triple quadrupole mass spectrometer (LC-MS/MS).
For LC, NANOSPACE SI-2 (manufactured by Shiseido) was used, and […] MGM was selected as the analytical column.
For MS, TSQ Quantiva (manufactured by Thermo Fisher Scientific Co., Ltd.) was used, and five compounds were ionized in the negative mode and detected using the Selected Reaction Monitoring method. The quantitative value was calculated using a calibration curve prepared with a standard solution of each compound.
For statistical analysis, the Mann-Whitney test was used for comparison between groups, and the Wilcoxon test was used for comparison of changes over time. The Pearson test was used for correlation.
Then, the average value and SD of each group were calculated for (i) to (ix) above. For each of (iv) to (ix) above, the average value and SD of each group were calculated for all data of 6 weeks, 12 weeks, and 24 weeks after the start of administration in each group.

p-cresyl sulfate = experiment: Urine p-cresyl sulfate (PCS) corrected by urinary specific gravity; assay type: in vivo, human
Text: (§3) Medical Examination, Vol. 44, No. 1, 1995, pages 79-83 by Tetsuo Aoki et al. was referred to. A urinary specific gravity 1.022 was converted into a reference value.
(§4) Specific gravity correction value (unit/1.022·UG)=actual measurement value×(1.022−1.000)/(specific gravity value−1.000)

phenylacetyl-L-glutamine = experiment: Urine phenylacetyl-L-glutamine (PAG) corrected by urinary specific gravity; assay type: in vivo, human
Text: as §3, §4

[1] = Human clinical trial: osmotic pressure of early morning urine (freezing point depression method); assay type: in vivo
Procedure: as §1, §2
The osmotic pressure was measured using the freezing point depression method.

indoxyl sulfate = experiment: Urine indoxyl sulfate (IS) corrected by urine osmotic pressure; assay type: in vivo, human
Text: Medical Examination, Vol. 44, No. 1, 1995, pages 79-83 by Tetsuo Aoki et al. was referred to. In addition, a urine osmotic pressure 770 mOsm/kg was converted into a reference value.
Osmotic pressure correction value (unit/500 mOsm·P)=actual measurement value×500/osmotic pressure value

[2] = 0 W, before the start of administration
[3] = 6-24 W, all data of 6, 12 and 24 weeks

O=C([O-])O.[Na+] [Bicarbonate, sodium bicarbonate]
Hippuric Acid-Urine/Plasma ratio (hippuric acid; [2]): 304.5 ± 361.8
Plasma Hippuric Acid (hippuric acid; [2]): 742 ± 706 ng/mL
Urine Hippuric Acid (early morning urine) (hippuric acid; [2]): 109249 ± 96133 ng/mL
Hippuric Acid-Urine/Plasma ratio (hippuric acid; [3]): 265.8 ± 812.9
Hippuric Acid-Urine/Plasma ratio, change from week 0 (hippuric acid; [3]): −50.2 ± 688.3^b
Plasma Hippuric Acid (hippuric acid; [3]): 1091 ± 991 ng/mL
Plasma Hippuric Acid, change from week 0 (hippuric acid; [3]): 342.1 ± 838.5 ^e ng/mL
Urine Hippuric Acid (early morning urine) (hippuric acid; [3]): 103027 ± 76475 ng/mL
Urine Hippuric Acid, change from week 0 (hippuric acid; [3]): -6221 ± 73493 ng/mL
Hippuric Acid-Urine/Plasma ratio (hippuric acid; 6 W): 148.7 ± 119.2^f
Hippuric Acid-Urine/Plasma ratio, change from week 0 (hippuric acid; 6 W): −155.8 ± 312.2^a
Plasma Hippuric Acid (hippuric acid; 6 W): 809 ± 496 ng/mL
Plasma Hippuric Acid, change from week 0 (hippuric acid; 6 W): 66.6 ± 681.8 ng/mL
Urine Hippuric Acid (early morning urine) (hippuric acid; 6 W): 98283 ± 80730 ng/mL
Urine Hippuric Acid, change from week 0 (hippuric acid; 6 W): -10966 ± 75133 ng/mL
Hippuric Acid-Urine/Plasma ratio (hippuric acid; 12 W): 151.8 ± 115.8
Hippuric Acid-Urine/Plasma ratio, change from week 0 (hippuric acid; 12 W): −161.2 ± 302.1
Plasma Hippuric Acid (hippuric acid; 12 W): 994 ± 806 ng/mL
Plasma Hippuric Acid, change from week 0 (hippuric acid; 12 W): 230.0 ± 655.6 ng/mL
Urine Hippuric Acid (early morning urine) (hippuric acid; 12 W): 96346 ± 70315 ng/mL
Urine Hippuric Acid, change from week 0 (hippuric acid; 12 W): -12903 ± 61236 ng/mL
Hippuric Acid-Urine/Plasma ratio (hippuric acid; 24 W): 523.0 ± 1438
Hippuric Acid-Urine/Plasma ratio, change from week 0 (hippuric acid; 24 W): 191.1 ± 1147
Plasma Hippuric Acid (hippuric acid; 24 W): 1465 ± 1387^c ng/mL
Plasma Hippuric Acid, change from week 0 (hippuric acid; 24 W): 722.3 ± 1023 ^c ng/mL
Urine Hippuric Acid (early morning urine) (hippuric acid; 24 W): 114453 ± 81562 ng/mL
Urine Hippuric Acid, change from week 0 (hippuric acid; 24 W): 5204 ± 85546 ng/mL
Influence on concentration of HA (hippuric acid; Plasma, comparison with Cont): X
Influence on concentration of HA (hippuric acid; Plasma, comparison with reference drug): —
Influence on HA U/P ratio (hippuric acid; comparison with Cont): X
Influence on HA U/P ratio (hippuric acid; comparison with reference drug): —
Influence on concentration of HA (hippuric acid; Urine, comparison with Cont): —
Influence on concentration of HA (hippuric acid; Urine, comparison with reference drug): —
Urine PCS, specific gravity corrected (p-cresyl sulfate; 0 W): 113.0 ± 119.5 μg · mL^−1/1.022 · UG
Urine PCS, specific gravity corrected (p-cresyl sulfate; 6-24 W, all data): 83.2 ± 93.2 μg · mL^−1/1.022 · UG
Urine PCS, specific gravity corrected, % Relative value vs week 0 (p-cresyl sulfate; 6-24 W, all data): 151 ± 323^b,e %
Urine PCS, specific gravity corrected, difference vs week 0 (p-cresyl sulfate; 6-24 W, all data): −29.8 ± 66.1^b,d μg · mL^−1/1.022 · UG
Urine PCS, specific gravity corrected (p-cresyl sulfate; 6 W): 98.1 ± 118.3 μg · mL^−1/1.022 · UG
Urine PCS, specific gravity corrected, % Relative value vs week 0 (p-cresyl sulfate; 6 W): 83 ± 34^d,g %
Urine PCS, specific gravity corrected (p-cresyl sulfate; 12 W): 66.7 ± 73.0 μg · mL^−1/1.022 · UG
Urine PCS, specific gravity corrected, % Relative value vs week 0 (p-cresyl sulfate; 12 W): 105 ± 112%
Urine PCS, specific gravity corrected, difference vs week 0 (p-cresyl sulfate; 12 W): −46.3 ± 68.4^d,g μg · mL^−1/1.022 · UG
Urine PCS, specific gravity corrected (p-cresyl sulfate; 24 W): 84.8 ± 86.0 μg · mL^−1/1.022 · UG
Urine PCS, specific gravity corrected, % Relative value vs week 0 (p-cresyl sulfate; 24 W): 265 ± 540%
Urine PCS, specific gravity corrected, difference vs week 0 (p-cresyl sulfate; 24 W): −28.3 ± 84.4^ μg · mL^−1/1.022 · UG
Urine PAG, specific gravity corrected (phenylacetyl-L-glutamine; 0 W): 203.6 ± 169.1 μg · mL^−1/1.022 · UG
Urine PAG, specific gravity corrected (phenylacetyl-L-glutamine; 6-24 W, all data): 162.0 ± 182.5 μg · mL^−1/1.022 · UG
Urine PAG, specific gravity corrected, % Relative value vs week 0 (phenylacetyl-L-glutamine; 6-24 W, all data): 87 ± 60%
Urine PAG, specific gravity corrected, difference vs week 0 (phenylacetyl-L-glutamine; 6-24 W, all data): −41.6 ± 126.8 μg · mL^−1/1.022 · UG
Urine PAG, specific gravity corrected (phenylacetyl-L-glutamine; 6 W): 202.9 ± 260.9 μg · mL^−1/1.022 · UG
Urine PAG, specific gravity corrected, % Relative value vs week 0 (phenylacetyl-L-glutamine; 6 W): 97 ± 71%
Urine PAG, specific gravity corrected, difference vs week 0 (phenylacetyl-L-glutamine; 6 W): −0.7 ± 162.0 μg · mL^−1/1.022 · UG
Urine PAG, specific gravity corrected, % Relative value vs week 0 (phenylacetyl-L-glutamine; 12 W): 76 ± 60%
Urine PAG, specific gravity corrected, difference vs week 0 (phenylacetyl-L-glutamine; 12 W): −67.6 ± 91.9 ^ μg · mL^−1/1.022 · UG
Urine PAG, specific gravity corrected (phenylacetyl-L-glutamine; 24 W): 147.1 ± 116.4 μg · mL^−1/1.022 · UG
Urine PAG, specific gravity corrected, % Relative value vs week 0 (phenylacetyl-L-glutamine; 24 W): 88 ± 49%
Urine PAG, specific gravity corrected, difference vs week 0 (phenylacetyl-L-glutamine; 24 W): −56.5 ± 113.7 μg · mL^−1/1.022 · UG
Urine Osmotic Pressure ([1]; 0 W, before the start of the test): 492 ± 206 mOsm/kg
Urine Osmotic Pressure ([1]; 6-24 W, all data): 486 ± 164 mOsm/kg
Urine Osmotic Pressure (% Relative value vs week 0) ([1]; 6-24 W, all data): 109 ± 45^b %
Urine Osmotic Pressure, difference vs week 0 ([1]; 6-24 W, all data): −6 ± 168 mOsm/kg
Urine Osmotic Pressure ([1]; 6 W): 488 ± 154 mOsm/kg
Urine Osmotic Pressure (% Relative value vs week 0) ([1]; 6 W): 108 ± 34%
Urine Osmotic Pressure, difference vs week 0 ([1]; 6 W): −4 ± 165 mOsm/kg
Urine Osmotic Pressure ([1]; 12 W): 456 ± 143 mOsm/kg
Urine Osmotic Pressure (% Relative value vs week 0) ([1]; 12 W): 105 ± 57%
Urine Osmotic Pressure, difference vs week 0 ([1]; 12 W): −36 ± 176^ mOsm/kg
Urine Osmotic Pressure ([1]; 24 W): 515 ± 195 mOsm/kg
Urine Osmotic Pressure (% Relative value vs week 0) ([1]; 24 W): 114 ± 45%
Urine Osmotic Pressure, difference vs week 0 ([1]; 24 W): 23 ± 169 mOsm/kg
osmotic pressure value of early morning urine ([1]; over 6, 12 and 24 weeks, compared with the control group): maintained or increased
Urine IS, osmotic pressure corrected (indoxyl sulfate; 0 W): 87.9 ± 40.0 μg · mL^−1/770 mOsm · P
Urine IS, osmotic pressure corrected (indoxyl sulfate; 6-24 W, all data): 77.0 ± 42.5 μg · mL^−1/770 mOsm · P
Urine IS, osmotic pressure corrected, % Relative value vs week 0 (indoxyl sulfate; 6-24 W, all data): 93 ± 49%
Urine IS, osmotic pressure corrected (indoxyl sulfate; 6 W): 82.9 ± 44.6 μg · mL^−1/770 mOsm · P
Urine IS, osmotic pressure corrected, % Relative value vs week 0 (indoxyl sulfate; 6 W): 98 ± 30%
Urine IS, osmotic pressure corrected, % Relative value vs week 0 (indoxyl sulfate; 12 W): 77 ± 39%
Urine IS, osmotic pressure corrected (indoxyl sulfate; 24 W): 84.4 ± 48.4 μg · mL^−1/770 mOsm · P
Urine IS, osmotic pressure corrected, % Relative value vs week 0 (indoxyl sulfate; 24 W): 104 ± 68%
